# Laboratory results as given in patent US20060264442A1, “Methods for the treatment of ocular and neurodegenerative conditions in a mammal” (Allergan, Inc., priority 2005, published 2006).
# Experiments:
# [1] = system: retinal ganglion cells; test: Partial optic nerve (ON) injury model, retinal ganglion cell count; format: in vivo, Sprague Dawley rats; conditions: for RGC survival / protective effect: count at twelve days
# Experimental: (§1) All procedures were conducted following AACUC protocols. Rats were anesthetized by intramuscular administration of Ketamine/Xylazine/Acepromazine/Saline cocktail, 5/2.5/1/1.5, milliliters respectively, at 1 ml/Kg.
# Sprague Dawley rats weighing 300-350 g were used in this experiment. They were anesthetized with the above anesthetic cocktail and ON injury was applied. […] The tissues around the optic nerve were kept away from the optic nerve using jaw opening forceps. Calibrated forceps was put around the nerve about 3 to 4 mm from the globe and held for 30 seconds. The forceps were then removed, and the eyes treated with topical antibiotics at the site of incision. Drugs were then administered at selected doses via IP. Control animals received vehicle.
# (§2) The effect of ON injury and elevated IOP on ganglion cells was determined by evaluating ganglion cell loss in whole mounted retinas. At the end of twelve days for ON injured and three months for COHT animals the ganglion cells were labeled by retrograde transport of Dextran Tetramethyl Rhodamine (DTMR, Molecular Probes, OR). […] A longitudinal cut (<1 mm) was made at about 3-4 mm distal from the globe. The optic nerve was sectioned and DTMR crystals were applied at the cut end. Twenty four hours after labeling the animals were euthanized and the eyes enucleated and fixed for 2 hours with 4% paraformaldehyde, then the retinas were removed and whole mounted. Cell counts were done using a Nikon microscope under fluorescent light with Rhodamine filter at 400×. Eight to sixteen regions were counted. Ganglion cell loss was calculated as percentage loss compared to unlasered control. Percent protection was calculated by comparing drug treated to vehicle treated eyes. Statistical analysis was done using two-tail student's t-test.
# [2] = system: retinal ganglion cells; test: COHT model, retinal ganglion cell count; format: in vivo, Wistar rats
# Experimental: (§3) Wistar rats weighing 400-475 grams were used. The rats were anesthetized and ocular hypertension was induced by laser photocoagulation of the outflow pathway (mainly episcleral and limbal veins) using a Coherent Argon Laser (Coherent Novus 2000). The number of spots was approximately 150 after two laser treatments with one week interval. IOP was measured using Tono-Pen XL (Mentor O&O). Measurements were done prior to laser treatments to determine baseline and subsequent readings were done weekly.
# as §2
# [3] = COHT model, ERG evaluation of retinal function; format: in vivo, Wistar rats; conditions: topical 0.015% twice a day, at the end of 90 days
# Experimental: as §3
# Electroretinographic evaluation of the retina was done only to OHT animals. The retinal function was measured 90 days after first laser treatment and prior retinal labeling. LKC system was used with the following parameters: low and high cut filters 0.3 and 500 Hz respectively, number of runs per sample were 10, flash intensity was −30, −20, −10 and −4 dB, Notch filter was off. Data analysis including OP's extraction from flash ERG was done using the system's software and noise was filtered prior calculation. Data represents the average of 5 animals.
# At the end of 90 days retinal function was measured using electroretinography (ERG). […] Similarly the oscillatory potential responses were also preserved by prazosin treatment (FIG. 6).
# [4] = Chronic ocular hypertension (COHT) model, IOP measurement; format: in vivo, Wistar rats; conditions: topical 0.015% twice a day for 90 days, compared to vehicle treated eyes
# Experimental: as §1, §3
# In this model prazosin was tested after topical application of 0.015% twice a day for 90 days. […] The IOP level reached a steady state after 40 days and it was maintained for the rest of the experimental period.
compound,measurement,setting,value
"COc1ccccc1N1CCN(CCCNc2c(C)c(=O)n(C)c(=O)n2C)CC1 [5-methyl-Urapedil, 5-methylurapadil]",RGC survival / protective effect,[1]; 10 μg/kg IP,no protective effect
"Brc1c(NC2=NCCN2)ccc2nccnc12 [Brimonidine, brimonidine]",RGC protection in COHT model (comparison in words),[2]; dose not given,comparable to what we have observed with Brimonidine
same,RGC survival / protective effect,[1]; 100 μg/kg IP,protective action of Prazosine is similar to that of Brimonidine
"COc1cc2nc(N3CCN(C(=O)c4ccco4)CC3)nc(N)c2cc1OC [Prazosine, prazosin]",ERG A and B wave amplitudes,[3],In vehicle treated animals both A and B wave amplitudes were smaller than those treated with prazosin
same,Oscillatory potential responses,[3],preserved
same,Protection of RGC compared to vehicle treated group,"[2]; 0.015% topical, three months of IOP elevation",46%
same,RGC decrease,"[2]; 0.015% topical, three months of IOP elevation, loss compared to unlasered control",20%
same,RGC survival / protective effect,[1]; 10 μg/kg IP,almost two fold increase in RGC survival
same,Elevation of IOP,[4],attenuated the elevation of IOP
"COc1cc2nc(N3CCN(C(=O)C4CCCO4)CC3)nc(N)c2cc1OC (stereo not drawn) [Terazosine, terazosin]",RGC protection,[1]; 0.1 μg/kg IP,Protection was observed
same,RGC protection,[1]; 1.0 μg/kg IP,maximum effect
same,RGC survival / protective effect,[1]; 10 μg/kg IP,no effect
